Values quoted from earlier work in publication PMC12308805, “Ultrahigh-Throughput Virtual Screening Strategies against PPI Targets: A Case Study of STAT Inhibitors” (Journal of Chemical Information and Modeling, 2025).
Read-outs that look alike come from different tables or passages of the source. Numbered stars: 1 amine (or outer) side, 2 acyl side, 3 side chain; on linkers, the order of the positions; unused ones are H or OH. Square brackets hold non-standard residues; d marks the D form. Peptide text beside a SMILES is read from it. * marks the point of attachment. X5 = O=C([C@@H]1[C@@H]2C[C@@H]2CN1[*:1])[*:2]; pY = N[C@@H](Cc1ccc(OP(=O)(O)O)cc1)C(=O)O; Cha = N[C@@H](CC1CCCCC1)C(=O)O; Nle = CCCC[C@H](N)C(=O)O; Propionyl = CCC(=O)*

Tested on: STAT3
Conditions: cited from earlier work; for Type: retrospective screening set for STAT3 SH2 domain (PDB 6QHD), ref DUD-E
[1] = sheet 6QHD_actives_decoys, known STAT3 actives of the retrospective screening set, ref ChEMBL / literature
[2] = sheet 6QHD_actives_decoys, decoys are presumed inactives, not tested
[3] = sheet 6QHD_actives_decoys, decoys generated with DUD-E and presumed inactive, not tested

SMILES	Type [2]	Type [3]	other results
CC(=O)N[C@@H](Cc1ccc(OP(=O)(O)O)cc1)C(=O)N[C@@H](CC1CCCCC1)C(=O)N1CCC[C@H]1C(=O)N[C@@H](CCC(N)=O)C(=O)N[C@H](C(N)=O)[C@@H](C)O [CHEMBL371871] (Ac-[pY][Cha]PQT-NH2)	–	–	Type (known STAT3 active) [1]: Active
Cc1nn(C)cc1CN1CCN(C(=S)Nc2ccc(S(=O)(=O)Nc3ncccn3)cc2)CC1 [Decoy788]	Inactive (Decoy)	–	–
CCN[C@@H](c1ccc(I)cc1)c1ccc(OC)c(Br)c1 [Decoy431]	–	Inactive (Decoy)	–
CCCNC(=O)CN(C)C(=O)c1ccc(N2CCNCC2)c(NS(=O)(=O)c2ccc(CCC)cc2)c1 [Decoy450]	–	Inactive (Decoy)	–
Cc1ccc(S(=O)(=O)NCCCCNS(=O)(=O)c2ccc(C)c([N+](=O)[O-])c2)cc1[N+](=O)[O-] [Decoy360]	–	–	Type (sheet 6QHD_actives_decoys, […]): Inactive (Decoy)
CN(CCO)c1ccc(/C=N\Nc2ccc(S(=O)(=O)Nc3ccccc3C(=O)O)cc2[N+](=O)[O-])cc1 [Decoy894]	Inactive (Decoy)	–	–
CCOC(=O)c1ccc(NC(=O)C(=O)NCc2ccc(/C=C3\C(=O)N(c4ccc(Cl)c(Cl)c4)C(C)=C3C(=O)OC)o2)cc1 [Decoy846]	Inactive (Decoy)	–	–
CC(=O)N[C@@H](Cc1ccc(OP(=O)(O)O)cc1)C(=O)N[C@@H](CC(C)C)C(=O)N1C[C@H]2C[C@H]2[C@H]1C(=O)N[C@@H](CCC(N)=O)C(=O)N[C@H](C(N)=O)[C@@H](C)O [CHEMBL436319] (Ac-[pY]L[X5]QT-NH2)	–	–	Type (known STAT3 active): Active
CCCN[C@H](c1cc(F)ccc1Cl)c1cc(C)ccc1Br [Decoy850]	Inactive (Decoy)	–	–
Cc1ccc(S(=O)(=O)NCCN(CCN(CCNS(=O)(=O)c2ccc(C)cc2)S(=O)(=O)c2ccc(C)cc2)S(=O)(=O)c2ccc(C)cc2)cc1 [Decoy653]	–	Inactive (Decoy)	–
Cc1nccc(NS(=O)(=O)c2ccc(NC(=O)c3cccc(C(=O)Nc4ccc(S(=O)(=O)Nc5ccnc(C)n5)cc4)c3)cc2)n1 [Decoy361]	–	–	Type (sheet 6QHD_actives_decoys, […]): Inactive (Decoy)
O=c1ccn([C@@H]2O[C@@H](CO[P@@](=O)(O)O[P@@](=O)(O)OP(=O)(O)O)[C@@H](O)[C@@H]2O)c(=O)[nH]1 [Decoy511]	–	Inactive (Decoy)	–
N[C@@H](CCCC[n+]1cc(CC[C@H](N)C(=O)O)cc(CC[C@H](N)C(=O)O)c1CCC[C@H](N)C(=O)O)C(=O)[O-] [Decoy841]	Inactive (Decoy)	–	–
COc1ccc(/C=C(\C#N)C(=O)Nc2ccc(S(=O)(=O)Nc3ccc(C)cc3)cc2)cc1OS(=O)(=O)c1ccc(NC(C)=O)cc1 [Decoy355]	–	Inactive (Decoy)	–
C[C@H]1CN(S(=O)(=O)c2ccc(C(=O)Nc3ccc(S(=O)(=O)Nc4nccs4)cc3)cc2)C[C@H](C)O1 [Decoy868]	Inactive (Decoy)	–	–
COc1cc(-c2ccc(/N=N/c3cc(S(=O)(=O)O)c4ccccc4c3O)c(OC)c2)ccc1/N=N\c1c(S(=O)(=O)O)cc2cc(C(=O)O)c(O)cc2c1O [Decoy859]	Inactive (Decoy)	–	–
CC(=O)SCCNC(=O)CCNC(=O)[C@@H](O)C(C)(C)CO[P@](=O)(O)O[P@](=O)(O)OC[C@H]1O[C@@H](n2cnc3c(N)ncnc32)[C@@H](O)[C@H]1OP(=O)(O)O [Decoy854]	Inactive (Decoy)	–	–
CC(C)C[C@H](NC(=O)/C=C/c1ccc(OP(=O)(O)O)cc1)C(=O)N1CCC[C@H]1C(=O)N[C@@H](CC(N)=O)C(=O)NCc1ccccc1 [CHEMBL573901]	–	–	Type (known STAT3 active): Active
O=C(O)c1cccc(NC(=O)[C@@H]2C[C@H](SS[C@@H]3CN[C@H](C(=O)Nc4cccc(C(=O)O)c4)C3)CN2)c1 [Decoy613]	–	Inactive (Decoy)	–
CCCc1nc(C(C)(C)O[C@@H]2O[C@H](C(=O)O)[C@@H](O)[C@H](O)[C@H]2O)c(C(=O)O)n1Cc1ccc(-c2ccccc2-c2nnn[nH]2)cc1 [Decoy521]	–	Inactive (Decoy)	–
Cc1c(C#N)c(NC(=O)CSc2nnc(COc3ccccc3F)n2N)n(C[C@@H]2CCCO2)c1C [Decoy954]	Inactive (Decoy)	–	–
COc1cc(C[C@H]2CO[C@H](c3ccc(O)c(OC)c3)[C@@H]2CO[C@H]2O[C@@H](CO)[C@@H](O)[C@@H](O)[C@H]2O)ccc1O [Decoy715]	–	Inactive (Decoy)	–
CC(=O)O[C@@H]1[C@H](O)[C@H](CO)O[C@H](OCC2=CO[C@H](OC(=O)CC(C)C)[C@H]3[C@H]2C[C@H](OC(C)=O)[C@@]3(C)O)[C@@H]1OC(C)=O [Decoy569]	–	Inactive (Decoy)	–
CC(C)C[C@H](NC(=O)/C=C/c1ccc(OP(=O)(O)O)cc1)C(=O)N1CCC[C@H]1C(=O)NCCCC(N)=O [CHEMBL573048]	–	–	Type (known STAT3 active): Active
C=C(CO[C@@H]1[C@H](O)[C@H](CO)O[C@@H](OCC#Cc2ccc(O)c(C(=O)OC)c2)[C@H]1NC(C)=O)C(=O)OCC [Decoy506]	–	Inactive (Decoy)	–
CC(C)C[C@H](NC(=O)/C=C/c1ccc(OP(=O)(O)O)cc1)C(=O)N1CCC[C@H]1C(=O)N[C@@H](CCC(N)=O)COCc1ccccc1 [CHEMBL573904]	–	–	Type (known STAT3 active) [1]: Active

SMILES	Type [2]	Type [3]	other results
COc1ccc(C(=O)N/C(=C\c2cn(S(=O)(=O)N(C)C)c3ccccc23)C(=O)NCCN2CCOCC2)cc1OC [Decoy375]	–	Inactive (Decoy)	–
OC[C@@H](O)CN(C[C@H](O)CO)c1ccc(Cc2ccc(N(C[C@H](O)CO)C[C@@H](O)CO)cc2)cc1 [Decoy620]	–	Inactive (Decoy)	–
NS(=O)(=O)c1ccc(NC(=O)CSc2ccc(NC(=O)c3cccc([N+](=O)[O-])c3)cc2)cc1 [Decoy391]	–	Inactive (Decoy)	–
COC(=O)/C(=N/NC(C)(C)C)[C@@H](C(=O)C(=O)Nc1cc(C)ccc1C)c1nc2ccccc2[nH]c1=O [Decoy341]	–	Inactive (Decoy)	–
CC[C@H](c1nnnn1C[C@H]1CCCO1)N(Cc1ccc(C)cc1)Cc1cc2cc(OC)c(OC)cc2[nH]c1=O [Decoy698]	–	Inactive (Decoy)	–
CC(=O)N[C@@H](Cc1ccc(OC(C(=O)O)C(=O)O)cc1)C(=O)N[C@@H](CC(C)C)C(=O)N1CCC[C@H]1C(=O)N[C@@H](CCC(N)=O)C(=O)N[C@H](C(=O)N[C@H](C(=O)O)C(C)C)[C@@H](C)O [CHEMBL231705]	–	–	Type (known STAT3 active) [1]: Active
COC(=O)[C@@H]1O[C@H](OC/C(=N/NC(N)=O)[C@@]2(O)CC[C@@H]3[C@@H]4CC[C@H]5C[C@H](OC(C)=O)CC[C@@]5(C)[C@H]4C(=O)C[C@]32C)[C@@H](OC(C)=O)[C@H](OC(C)=O)[C@H]1OC(C)=O [Decoy340]	–	Inactive (Decoy)	–
CC(=O)N[C@H]1[C@@H](OC(=O)CCn2c(=O)oc3ccccc32)O[C@@H](COC(C)=O)[C@@H](OC(C)=O)[C@H]1OC(C)=O [Decoy931]	Inactive (Decoy)	–	–
O=C(NCCCCCCNC(=O)OCCN[C@H]1CCS(=O)(=O)C1)OCCN[C@H]1CCS(=O)(=O)C1 [Decoy454]	–	Inactive (Decoy)	–
Cc1nn(Cc2ccc(Cl)cc2Cl)c(C)c1NC(=S)Nc1ccc(S(=O)(=O)Nc2ncccn2)cc1 [Decoy456]	–	Inactive (Decoy)	–
CCOC(=O)CNC(=O)[C@H](c1ccc(OC)cc1)N(C(=O)c1snc(C(N)=O)c1N)c1cccc(C)c1 [Decoy735]	Inactive (Decoy)	–	–
CCCC[C@H](NC(=O)[C@H](Cc1ccc(OP(=O)(O)O)cc1)NC(C)=O)C(=O)N1CCC[C@H]1C(=O)N[C@@H](CCC(N)=O)C(=O)N[C@H](C(N)=O)[C@@H](C)O [CHEMBL197513] (Ac-[pY][Nle]PQT-NH2)	–	–	Type (known STAT3 active) [1]: Active
Cc1ccc(N(C[C@H](O)[C@@H](O)[C@H](O)CO)/N=N/c2cccc(S(=O)(=O)O)c2)cc1C [Decoy430]	–	Inactive (Decoy)	–
CC[C@H](C)N1C(=O)NC(=O)/C(=C/Nc2ccc3c(c2)C[C@]2(C(=O)NC(=O)N=C2O)[C@H]2CN(C)CCN32)C1=O [Decoy502]	–	–	Type (sheet 6QHD_actives_decoys, […]): Inactive (Decoy)
CCOC(=O)C1=C(C)NC(=O)N[C@H]1c1ccc(OCC(=O)N/N=C/c2cc(C)n(-c3ccc(Cl)c(Cl)c3)c2C)c(OC)c1 [Decoy745]	Inactive (Decoy)	–	–
CC(/C=C/C=C(\C)C(=O)O)=C\C=C\C=C(C)\C=C\C=C(/C)C(=O)O[C@@H]1O[C@H](CO[C@@H]2O[C@H](CO)[C@@H](O)[C@H](O)[C@H]2O)[C@@H](O)[C@H](O)[C@H]1O [Decoy785]	Inactive (Decoy)	–	–
Nc1ncnc2c1ncn2[C@H]1O[C@@H](CO[P@@](=O)(O)O[P@@](=O)(O)OC[C@H](O)[C@H](O)[C@H](O)C=O)[C@@H](O)[C@@H]1O [Decoy403]	–	Inactive (Decoy)	–
CCC(=O)N[C@@H](Cc1ccc(OP(=O)(O)O)cc1)C(=O)N[C@@H](CC(C)C)C(=O)N1CCC[C@H]1C(=O)N[C@@H](CCC(N)=O)C(=O)N[C@H](C(N)=O)[C@@H](C)O [CHEMBL197580] (Propionyl-[pY]LPQT-NH2)	–	–	Type (known STAT3 active): Active
COc1cc(/C=C/C(=O)O[C@H]2[C@H](O)[C@@H](COC(=O)/C=C/c3ccc(O)cc3)O[C@@]2(CO)O[C@H]2O[C@H](CO)[C@@H](O)[C@H](O)[C@H]2O)ccc1O [Decoy706]	–	Inactive (Decoy)	–
COc1cc(O)cc(C)c1C(=O)O[C@H]1[C@H](O)[C@@H](O)[C@@H](OC2[C@@H](O)[C@H](O)C(O)[C@H](O)[C@@H]2O)O[C@@H]1CO (stereo partly shown) [Decoy641]	–	Inactive (Decoy)	–
C=C1N=C2C[C@H](c3ccc(OC)c(OC)c3)CC(=O)C2[C@H](c2cc(Br)c(O)c(OCC)c2)C1C(=O)OCCOCC (stereo partly shown) [Decoy369]	–	Inactive (Decoy)	–
CNc1ncnc2c1ncn2[C@H]1C[C@H](O)[C@@H](COC(c2ccccc2)(c2ccc(OC)cc2)c2ccc(OC)cc2)O1 [Decoy334]	–	Inactive (Decoy)	–
C[C@@H](OC(=O)CCC(=O)Nc1ccc(C(=O)OCC(=O)c2cccc([N+](=O)[O-])c2)cc1)C(=O)c1cccc(Cl)c1 [Decoy525]	–	Inactive (Decoy)	–
O=C(O)C[C@H](NS(=O)(=O)c1cc(S(=O)(=O)N[C@H](CC(=O)O)c2ccccc2)c2cccc3c2c1NC3=O)c1ccccc1 [Decoy892]	Inactive (Decoy)	–	–
CCOC(=O)c1[nH]c(C)c(C(=O)OCC(=O)NCC(=O)Nc2ccc(F)c(F)c2F)c1C [Decoy747]	Inactive (Decoy)	–	–
CCN(CC)Cc1nnn(-c2nonc2N)c1C(=O)N/N=C(\C)c1ccc(OCc2ccc(Cl)cc2Cl)cc1 [Decoy952]	Inactive (Decoy)	–	–
